# Experiments:
# Test in all cases: relative viability (nuclei count vs DMSO), 5 days (fraction); higher = more cells survive
# ABC-1 = system: ABC-1
# Summary of the method: (§1)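 For relative viability, nuclei counts in treated wells were divided by those in vehicle wells. Lung cancer cell lines had been pin-tool dosed in 1536-well plates the day after seeding and cultured for 5 days, then fixed and stained in one step (final 0.05% Triton X-100, 1% formaldehyde, 1 ug/ml Hoechst) and imaged at 4×. Doses were one drug alone or a fixed anchor-drug dose plus five library-drug doses (not always all listed) in √10 steps, and values are duplicate-plate medians.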
# COR-L23 = system: COR-L23
# Summary of the method: as §1
# HARA = system: HARA
# Summary of the method: as §1
# SK-LU-1 = system: SK-LU-1
# Summary of the method: as §1
# NCI-H441 = system: NCI-H441
# Summary of the method: as §1
# PC-3 [JPC-3] = system: PC-3 [JPC-3]
# Summary of the method: as §1
# NCI-H3122 = system: NCI-H3122
# Summary of the method: as §1
# EMC-BAC-2 = system: EMC-BAC-2
# Summary of the method: as §1
# LK-2 = system: LK-2
# Summary of the method: as §1
# CAL-12T = system: CAL-12T
# Summary of the method: as §1
# NCI-H1650 = system: NCI-H1650
# Summary of the method: as §1
# NCI-H1437 = system: NCI-H1437
# Summary of the method: as §1
# HCC-366 = system: HCC-366
# Summary of the method: as §1
# NCI-H727 = system: NCI-H727
# Summary of the method: as §1
# NCI-H1755 = system: NCI-H1755
# Summary of the method: as §1
# RERF-LC-KJ = system: RERF-LC-KJ
# Summary of the method: as §1
# NCI-H2347 = system: NCI-H2347
# Summary of the method: as §1
# NCI-H596 = system: NCI-H596
# Summary of the method: as §1
# NCI-H1651 = system: NCI-H1651
# Summary of the method: as §1
# UMC-11 = system: UMC-11
# Summary of the method: as §1
# NCI-H1563 = system: NCI-H1563
# Summary of the method: as §1
# NCI-H1734 = system: NCI-H1734
# Summary of the method: as §1
# HOP-62 = system: HOP-62
# Summary of the method: as §1
compound,measurement,setting,value
CCNC(=O)c1noc(-c2cc(C(C)C)c(O)cc2O)c1-c1ccc(CN2CCOCC2)cc1 [Luminespib] + CS(=O)(=O)N1CCN(Cc2cc3nc(-c4cccc5[nH]ncc45)nc(N4CCOCC4)c3s2)CC1 [Pictilisib] (partner 1 µM),relative viability,ABC-1; first compound 0.002 µM,0.695
same,relative viability,ABC-1; first compound 0.006325 µM,0.693
same,relative viability,ABC-1; first compound 0.02 µM,0.407
same,relative viability,ABC-1; first compound 0.06325 µM,0.249
same,relative viability,ABC-1; first compound 0.2 µM,0.228
same,relative viability,COR-L23; first compound 0.002 µM,0.856
same,relative viability,COR-L23; first compound 0.006325 µM,0.633
same,relative viability,COR-L23; first compound 0.02 µM,0.368
same,relative viability,COR-L23; first compound 0.06325 µM,0.0587
same,relative viability,COR-L23; first compound 0.2 µM,0.0601
same,relative viability,HARA; first compound 0.002 µM,0.295
same,relative viability,HARA; first compound 0.006325 µM,0.396
same,relative viability,HARA; first compound 0.02 µM,0.174
same,relative viability,HARA; first compound 0.06325 µM,0.531
same,relative viability,HARA; first compound 0.2 µM,0.0744
same,relative viability,SK-LU-1; first compound 0.002 µM,0.582
same,relative viability,SK-LU-1; first compound 0.006325 µM,0.403
same,relative viability,SK-LU-1; first compound 0.02 µM,0.243
same,relative viability,SK-LU-1; first compound 0.06325 µM,0.161
same,relative viability,SK-LU-1; first compound 0.2 µM,0.121
same,relative viability,NCI-H441; first compound 0.002 µM,0.479
same,relative viability,NCI-H441; first compound 0.006325 µM,0.513
same,relative viability,NCI-H441; first compound 0.02 µM,0.425
same,relative viability,NCI-H441; first compound 0.06325 µM,0.104
same,relative viability,NCI-H441; first compound 0.2 µM,0.0836
same,relative viability,PC-3 [JPC-3]; first compound 0.002 µM,0.756
same,relative viability,PC-3 [JPC-3]; first compound 0.006325 µM,0.726
same,relative viability,PC-3 [JPC-3]; first compound 0.02 µM,0.626
same,relative viability,PC-3 [JPC-3]; first compound 0.06325 µM,0.578
same,relative viability,PC-3 [JPC-3]; first compound 0.2 µM,0.286
same,relative viability,NCI-H3122; first compound 0.002 µM,0.621
same,relative viability,NCI-H3122; first compound 0.006325 µM,0.621
same,relative viability,NCI-H3122; first compound 0.02 µM,0.368
same,relative viability,NCI-H3122; first compound 0.06325 µM,0.166
same,relative viability,NCI-H3122; first compound 0.2 µM,0.176
same,relative viability,EMC-BAC-2; first compound 0.002 µM,0.54
same,relative viability,EMC-BAC-2; first compound 0.006325 µM,0.511
same,relative viability,EMC-BAC-2; first compound 0.02 µM,0.417
same,relative viability,EMC-BAC-2; first compound 0.06325 µM,0.573
same,relative viability,EMC-BAC-2; first compound 0.2 µM,0.163
same,relative viability,LK-2; first compound 0.002 µM,0.569
same,relative viability,LK-2; first compound 0.006325 µM,0.548
same,relative viability,LK-2; first compound 0.02 µM,0.373
same,relative viability,LK-2; first compound 0.06325 µM,0.312
same,relative viability,LK-2; first compound 0.2 µM,0.218
same,relative viability,CAL-12T; first compound 0.002 µM,0.336
same,relative viability,CAL-12T; first compound 0.006325 µM,0.395
same,relative viability,CAL-12T; first compound 0.02 µM,0.25
same,relative viability,CAL-12T; first compound 0.06325 µM,0.111
same,relative viability,CAL-12T; first compound 0.2 µM,0.143
same,relative viability,NCI-H1650; first compound 0.002 µM,0.593
same,relative viability,NCI-H1650; first compound 0.006325 µM,0.653
same,relative viability,NCI-H1650; first compound 0.02 µM,0.199
same,relative viability,NCI-H1650; first compound 0.06325 µM,0.129
same,relative viability,NCI-H1650; first compound 0.2 µM,0.106
same,relative viability,NCI-H1437; first compound 0.002 µM,0.343
same,relative viability,NCI-H1437; first compound 0.006325 µM,0.495
same,relative viability,NCI-H1437; first compound 0.02 µM,0.249
same,relative viability,NCI-H1437; first compound 0.06325 µM,0.133
same,relative viability,NCI-H1437; first compound 0.2 µM,0.0978
same,relative viability,HCC-366; first compound 0.002 µM,0.159
same,relative viability,HCC-366; first compound 0.006325 µM,0.156
same,relative viability,HCC-366; first compound 0.02 µM,0.116
same,relative viability,HCC-366; first compound 0.06325 µM,0.0429
same,relative viability,HCC-366; first compound 0.2 µM,0.0407
same,relative viability,NCI-H727; first compound 0.002 µM,0.427
same,relative viability,NCI-H727; first compound 0.006325 µM,0.399
same,relative viability,NCI-H727; first compound 0.02 µM,0.264
same,relative viability,NCI-H727; first compound 0.06325 µM,0.123
same,relative viability,NCI-H727; first compound 0.2 µM,0.166
same,relative viability,NCI-H1755; first compound 0.002 µM,0.399
same,relative viability,NCI-H1755; first compound 0.006325 µM,0.372
same,relative viability,NCI-H1755; first compound 0.02 µM,0.351
same,relative viability,NCI-H1755; first compound 0.06325 µM,0.136
same,relative viability,NCI-H1755; first compound 0.2 µM,0.105
same,relative viability,RERF-LC-KJ; first compound 0.002 µM,0.665
same,relative viability,RERF-LC-KJ; first compound 0.006325 µM,0.636
same,relative viability,RERF-LC-KJ; first compound 0.02 µM,0.375
same,relative viability,RERF-LC-KJ; first compound 0.06325 µM,0.231
same,relative viability,RERF-LC-KJ; first compound 0.2 µM,0.182
same,relative viability,NCI-H2347; first compound 0.002 µM,0.751
same,relative viability,NCI-H2347; first compound 0.006325 µM,0.609
same,relative viability,NCI-H2347; first compound 0.02 µM,0.45
same,relative viability,NCI-H2347; first compound 0.06325 µM,0.54
same,relative viability,NCI-H2347; first compound 0.2 µM,0.4
same,relative viability,NCI-H596; first compound 0.002 µM,0.343
same,relative viability,NCI-H596; first compound 0.006325 µM,0.404
same,relative viability,NCI-H596; first compound 0.06325 µM,0.275
same,relative viability,NCI-H596; first compound 0.2 µM,0.267
same,relative viability,NCI-H1651; first compound 0.002 µM,0.592
same,relative viability,NCI-H1651; first compound 0.006325 µM,0.608
same,relative viability,NCI-H1651; first compound 0.02 µM,0.403
same,relative viability,NCI-H1651; first compound 0.06325 µM,0.136
same,relative viability,NCI-H1651; first compound 0.2 µM,0.162
same,relative viability,UMC-11; first compound 0.002 µM,0.43
same,relative viability,UMC-11; first compound 0.006325 µM,0.764
same,relative viability,UMC-11; first compound 0.02 µM,0.261
same,relative viability,UMC-11; first compound 0.06325 µM,0.603
same,relative viability,UMC-11; first compound 0.2 µM,0.185
same,relative viability,NCI-H1563; first compound 0.002 µM,0.721
same,relative viability,NCI-H1563; first compound 0.006325 µM,0.605
same,relative viability,NCI-H1563; first compound 0.02 µM,0.616
same,relative viability,NCI-H1563; first compound 0.06325 µM,0.525
same,relative viability,NCI-H1563; first compound 0.2 µM,0.551
same,relative viability,NCI-H1734; first compound 0.002 µM,0.519
same,relative viability,NCI-H1734; first compound 0.006325 µM,0.43
same,relative viability,NCI-H1734; first compound 0.02 µM,0.329
same,relative viability,NCI-H1734; first compound 0.06325 µM,0.14
same,relative viability,NCI-H1734; first compound 0.2 µM,0.146
same,relative viability,HOP-62; first compound 0.002 µM,0.678
same,relative viability,HOP-62; first compound 0.006325 µM,0.838
same,relative viability,HOP-62; first compound 0.02 µM,0.43
same,relative viability,HOP-62; first compound 0.06325 µM,0.164
same,relative viability,HOP-62; first compound 0.2 µM,0.0784

# Source: the supplement of paper PMC10307832
